Several values for one entry are separate records, joined by “and”; a condition that tells them apart may be missing. Identical values can stand only once. Like-named read-outs stand apart in the source and are kept apart here.
Columns and labels:
[1] = Fe3+ content per 500 mg compound (selection criterion 3); format: physicochemical
Description: 3. Appropriate equivalence of ferric ion per gram of compound. The potential ferric compound should contain enough ferric ions to effectively bind with dietary phosphate.

[2] = cited from earlier work
[3] = Harvey et al. 1998; cited from earlier work

Q: Which “Fe^3+ content per 500 mg compound” value ([1]; per 500 mg compound, unit mg) does the source give for `O=C([O-])CN(CCN(CC(=O)[O-])CC(=O)O)CC(=O)[O-].[Fe+3]` [ferric EDTA] here?
A: 81 mg

Q: With `O=C([O-])CN(CCO)CCN(CC(=O)[O-])CC(=O)[O-].[Fe+3]` [ferric HEDTA] as the compound, how does the “Fe^3+ content per 500 mg compound” value ([1]; per 500 mg compound, unit mg) read?
A: 85 mg

Q: Which “Fe^3+ content per 500 mg compound” value [1] does the source give for `CC(=O)[O-].CC(=O)[O-].CC(=O)[O-].[Fe+3]` [ferric acetate] here?
A: 120 mg

Q: With `CC(=O)/C=C(/C)[O-].CC(=O)/C=C(/C)[O-].CC(=O)/C=C(/C)[O-].[Fe+3]` [ferric acetylacetonate] as the compound, how does the “Fe^3+ content per 500 mg compound” value ([1]; per 500 mg compound, unit mg) read?
A: 78 mg

Q: With `O=C([O-])[O-].O=C([O-])[O-].O=C([O-])[O-].[Fe+3].[Fe+3]` [ferric carbonate] as the compound, how does the “Fe^3+ content per 500 mg compound” value [1] read?
A: 191 mg

Q: What about the “pKa of anionic group” value [2] of the same compound?
A: 10.3

Q: Which “Fe^3+ content per 500 mg compound” value [1] does the source give for `C[N+](C)(C)CCO.O=C([O-])CC(O)(CC(=O)[O-])C(=O)[O-].[Fe+3]` [ferric choline citrate] here?
A: 79 mg

Q: Which “Fe^3+ content per 500 mg compound” value [1] does the source give for `O=C[O-].O=C[O-].O=C[O-].[Fe+3]` [ferric formate] here?
A: 147 mg

Q: And the “pKa of anionic group” value [2]?
A: pKa = 3.75

Q: With `O=C([O-])/C=C/C(=O)[O-].O=C([O-])/C=C/C(=O)[O-].O=C([O-])/C=C/C(=O)[O-].[Fe+3].[Fe+3]` [ferric fumarate] as the compound, how does the “Fe^3+ content per 500 mg compound” value ([1]; per 500 mg compound, unit mg) read?
A: 125 mg

Q: And the “pKa of anionic group” value [2]?
A: pKa = 3.02

Q: Which results are given for `O=C([O-])CC(O)C(=O)[O-].O=C([O-])CC(O)C(=O)[O-].O=C([O-])CC(O)C(=O)[O-].[Fe+3].[Fe+3]` (stereo not drawn) [ferric malate]?
A: Fe^3+ content per 500 mg compound ([1]; per 500 mg compound, unit mg): 110 mg; pKa of anionic group [2]: pKa = 3.4

Q: With `CCCCC(CC)C(=O)[O-].CCCCC(CC)C(=O)[O-].CCCCC(CC)C(=O)[O-].[Fe+3]` (stereo not drawn) [ferric octoate] as the compound, how does the “Fe^3+ content per 500 mg compound” value ([1]; per 500 mg compound, unit mg) read?
A: 58 mg

Q: Which results are given for `O=C([O-])C(=O)[O-].O=C([O-])C(=O)[O-].O=C([O-])C(=O)[O-].[Fe+3].[Fe+3]` [ferric oxalate]?
A: Fe^3+ content per 500 mg compound ([1]; per 500 mg compound, unit mg): 142 mg; pKa of anionic group [2]: pKa = 1.25

Q: For `NCC(=O)[O-].NCC(=O)[O-].NCC(=O)[O-].[Fe+3]` [ferric triglycinate], which “Fe^3+ content per 500 mg compound” value [1] is on record?
A: 100 mg

Q: What about the “pKa of anionic group” value [2] of the same compound?
A: pKa = 2.35

Q: For `Cc1occc(=O)c1[O-].Cc1occc(=O)c1[O-].Cc1occc(=O)c1[O-].[Fe+3]` [ferric trimaltol], which “Fe^3+ content per 500 mg compound” value ([1]; per 500 mg compound, unit mg) is on record?
A: 65 mg

Q: And the correcting iron deficiency [3]?
A: capable of correcting iron deficiency

Q: What does the source list for ferric ascorbate?
A: Fe^3+ content per 500 mg compound ([1]; per 500 mg compound, unit mg): 121 mg; pKa of anionic group [2]: pKa = 4.04

Q: Which results are given for ferric aspartate?
A: Fe^3+ content per 500 mg compound ([1]; per 500 mg compound, unit mg): 62 mg; pKa of anionic group [2]: pKa = 1.99

Q: What does the source list for ferric citrate [reference compound]?
A: Fe^3+ content per 500 mg compound ([1]; per 500 mg compound, unit mg): 114 mg; pKa of anionic group [2]: pKa = 6.4

Q: With ferric gluconate as the compound, how does the “Fe^3+ content per 500 mg compound” value ([1]; per 500 mg compound, unit mg) read?
A: 44 mg

Q: For ferric histidinate, which “Fe^3+ content per 500 mg compound” value ([1]; per 500 mg compound, unit mg) is on record?
A: 54 mg

Q: For ferric oleate, which “Fe^3+ content per 500 mg compound” value ([1]; per 500 mg compound, unit mg) is on record?
A: 31 mg

Q: For ferric picolinate, which “Fe^3+ content per 500 mg compound” value ([1]; per 500 mg compound, unit mg) is on record?
A: 66 mg

Q: For ferric tartrate, which “Fe^3+ content per 500 mg compound” value ([1]; per 500 mg compound, unit mg) is on record?
A: 56 mg and 100 mg

Q: And the “pKa of anionic group, pKa1” value ([2]; first pKa)?
A: pKa1 = 2.98

Q: What about the “pKa of anionic group, pKa2” value ([2]; second pKa) of the same compound?
A: pKa2 = 4.34

From patent US9539284B2 (GLOBOASIA, LLC, priority 2006, dated 2017)
